Entries after “also recorded” stand apart in the source; their conditions may differ. Counter-ions that a name gives are not always drawn. Like-named read-outs stand apart in the source and are kept apart here. Blank lines part the entries; values can stand above or below the compound they belong to.
Experiments:
[1] = Dissolution experiment comparing pioglitazone salts (Example 2); type: physicochemical; settings: room temperature; for Dissolution (instant dissolution rate): 0.25 mmol salt added into 10 ml H2O with stirring, ** = salt dissolved partially to form an unclear solution; for later behaviour of the solution (turning into suspension / pioglitazone base) / kind of solution yielded on addition to water: 0.25 mmol salt in 10 ml H2O, stirring; for kind of solution yielded on addition to water: tosylate and 2-napsylate within 1 minute
Description: At room temperature, each pioglitazone salt (0.25 mmol) was added into 10 ml H2O with stirring.

[2] = Aqueous solubility of pioglitazone salts derived from strong acids or bases; type: physicochemical; settings: for soluble in H2O: aqueous solubility of the salt, * = the salt is dissolved in water to form a blurred solution
Description: As used herein a pioglitazone salt is considered “water-soluble” if a salt concentration of at least 7 mg/ml can be achieved, even if only momentarily, in distilled water at 25° C. […] The base salts also dissolved in water but they typically formed an unclear solution. The water-soluble salts of pioglitazone are useful as active agents in forming a pioglitazone pharmaceutical composition, especially solid dosage forms, as is described herein after. […] Depending on the salt, the precipitation of a solid begins as quickly as within a few minutes or after several hours. The time of precipitation also depends on nucleation. In particular, once a solid forms, the solution quickly precipitates to form a complete suspension.

[3] = cited from earlier work
[4] = Stability of pioglitazone sulfate aqueous solution with HPMC as solution stabilizer (Examples 3 and 4); type: physicochemical
Source text: Specifically, a solution stabilizer can be effectively added to a pioglitazone sulfate aqueous solution to enhance the stability. As used herein a “solution stabilizer” is an additive that when present in some amount in an aqueous pioglitazone sulfate solution, provides a statistically significant delay in the precipitation of pioglitazone base from the solution in comparison to the same solution held under the same conditions but without the solution stabilizer contained therein. […] Typically the solution stabilizer is a polymer, such as a water-soluble polymer, or a crown-ether. The solution stabilizer may be fully dissolved, partly dissolved and/or swelled, or not dissolved in the aqueous solution, but is preferably dissolved therein. Preferably the solution stabilizer is hydroxypropylmethylcellulose (HPMC), polyvinylpyrrolidone, or cyclodextrin, and most preferably HPMC. The amount of solution stabilizer is generally within the range of 1 to 500 mg/ml of the solution, typically 1 to 200 mg/ml, more typically 10 to 100 mg/ml. A stabilized pioglitazone sulfate solution is thus especially useful as a liquid pharmaceutical formulation and/or for making a liquid pharmaceutical formulation. The following system was tested using HPMC as an additive. […] To a clear solution containing 1.0 g of hydroxypropylmethylcellulose (HPMC) in 25 ml of H2O was added 125 mg of pioglitazone sulfate with stirring.

[5] = Properties of pioglitazone sulfate (solid state, methanol solubility, pH of aqueous solution); type: physicochemical
Description: Of the water-soluble salts, pioglitazone sulfate is the most preferred. As used herein “pioglitazone sulfate” means the salt formed from pioglitazone and sulfuric acid. The salt preferably has approximately a 1:1 molar ratio of pioglitazone moiety to sulfuric acid moiety, especially in solid form. […] Pioglitazone sulfate may be isolated in solid state as a white or almost white crystalline material. It melts at a temperature of about 105 to 115° C., without decomposition. […] Pioglitazone sulfate is thus an especially useful form of pioglitazone for making pharmaceutical formulations, e.g., as an active agent. The pioglitazone sulfate can precipitate from the solution spontaneously, but more likely some step such as cooling, concentrating, adding a seeding crystal, or adding a contrasolvent is advantageously and/or necessarily carried out. As pioglitazone sulfate is soluble in methanol, the addition of a contrasolvent is advantageous for precipitating the solid state salt. […] The size and shape of the formed crystals may be modified by known ways, for instance by precipitation regimen or by using crystallization modifiers. Solid state pioglitazone sulfate is a stable, easily handled solid material, and it may be used as an equivalent to pioglitazone hydrochloride in pharmaceutical compositions for treating pioglitazone-treatable diseases. […] Liquid compositions, particularly aqueous compositions, may include a solution stabilizer as indicated above. The stabilizer preferably comprises a water-soluble polymer, such as hydroxypropylmethylcellulose. The concentration of the polymer in the solution can be within any of the above-described ranges but most preferably is within the range from 0.1 to 10% (w/V) of the total volume. An aqueous solution of pioglitazone sulfate typically has a pH of about 4, which is well suited for both parenteral and peroral compositions.

Structure (SMILES): CCc1ccc(CCOc2ccc(CC3SC(=O)NC3=O)cc2)nc1 (stereo not shown) [2-Napsylate]
Dissolution (instant dissolution rate) [1]: yes/no**
later behaviour of the solution (turning into suspension / pioglitazone base) [1]: quickly turned into a suspension
kind of solution yielded on addition to water [1]: unclear solutions
soluble in H2O [2]: Slight

Structure (SMILES): CCc1ccc(CCOc2ccc(CC3SC(=O)NC3=O)cc2)nc1 (stereo not shown) [Edisylate]
Dissolution (instant dissolution rate) ([1]; listed as ethane-disulfonate): Yes
later behaviour of the solution (turning into suspension / pioglitazone base) ([1]; listed as ethane disulfonate): slowly turned into a suspension
kind of solution yielded on addition to water ([1]; listed as ethane disulfonate): clear solutions
soluble in H2O [2]: Yes
dissolution in water ([2]; listed as ethane-di-sulfonate): dissolved instantly in water

Structure (SMILES): CCc1ccc(CCOc2ccc(CC3SC(=O)NC3=O)cc2)nc1 (stereo not shown) [Hydrochloride, Pioglitazone hydrochloride]
soluble in H2O ([2]; hydrochloride): No
behaviour of methanolic solution poured into water ([2]; no base (neutralizing agent) used): pioglitazone base quickly precipitates
dissolution in water ([2]; hydrochloride): did not dissolve in water
solubility in N,N-dimethylformamide ([3]; N,N-dimethylformamide): dissolves well
solubility in acetone ([3]; acetone): very slightly soluble
solubility in acetonitrile ([3]; acetonitrile): very slightly soluble
solubility in anhydrous ethanol ([3]; anhydrous ethanol): slightly soluble
solubility in dimethyl-sulfoxide ([3]; dimethyl-sulfoxide): dissolves well
solubility in ether ([3]; ether): insoluble
stability of the crystalline material ([3]; room temperature and under moisture): stable
solubility in water ([3]; water, hydrochloride): practically insoluble; also recorded: extremely insoluble

Structure (SMILES): CCc1ccc(CCOc2ccc(CC3SC(=O)NC3=O)cc2)nc1 (stereo not shown) [K salt]
soluble in H2O [2]: yes*

Structure (SMILES): CCc1ccc(CCOc2ccc(CC3SC(=O)NC3=O)cc2)nc1 (stereo not shown) [Mesylate]
soluble in H2O [2]: Yes
dissolution in water [2]: dissolved instantly in water

Structure (SMILES): CCc1ccc(CCOc2ccc(CC3SC(=O)NC3=O)cc2)nc1 (stereo not shown) [Na salt]
soluble in H2O [2]: yes*

Structure (SMILES): CCc1ccc(CCOc2ccc(CC3SC(=O)NC3=O)cc2)nc1 (stereo not shown) [Sulfate, pioglitazone sulfate]
dissolution in HPMC water solution ([4]; 100 mg in HPMC water solution (2%, 25 ml)): easily dissolved
dissolution in HPMC water solution ([4]; 125 mg added with stirring to 1.0 g HPMC in 25 ml H2O): A clear solution was formed
stability of the HPMC-stabilized solution ([4]; 125 mg in 1.0 g HPMC / 25 ml H2O, stirred at room temperature for more than one month): No obvious solid appeared
stability of the HPMC-stabilized solution ([4]; 0.4% w/v pioglitazone sulfate in 2% HPMC water solution, room temperature, no obvious precipitation of a solid): stable at room temperature for at least four weeks
Dissolution (instant dissolution rate) [1]: Yes
later behaviour of the solution (turning into suspension / pioglitazone base) [1]: slowly turned into a suspension
kind of solution yielded on addition to water [1]: clear solutions
soluble in H2O [2]: Yes
stability of the water solution (precipitation of pioglitazone base) ([2]; aqueous solution without stabilizer): can stably remain in an aqueous solution for hours; also recorded: will eventually, after a trace of solid appears, turn into a suspension of pioglitazone base
dissolution in water [2]: dissolved instantly in water
solubility in water [2]: superior aqueous solubility
pH of aqueous solution ([5]; aqueous solution): about 4
solubility in methanol ([5]; methanol): soluble
hygroscopicity of the solid compound ([5]; solid): not hygroscopic
stability of the solid state material ([5]; solid state): stable

Structure (SMILES): CCc1ccc(CCOc2ccc(CC3SC(=O)NC3=O)cc2)nc1 (stereo not shown) [Tosylate]
Dissolution (instant dissolution rate) [1]: yes/no**
later behaviour of the solution (turning into suspension / pioglitazone base) [1]: quickly turned into a suspension
kind of solution yielded on addition to water [1]: unclear solutions

Other lines, results leading:

soluble in H2O [2]: yes*
Structure (SMILES): CCc1ccc(CCOc2ccc(CC3SC(=O)NC3=O)cc2)nc1 (stereo not shown) [Ca salt]

soluble in H2O [2]: yes*
Structure (SMILES): CCc1ccc(CCOc2ccc(CC3SC(=O)NC3=O)cc2)nc1 (stereo not shown) [Choline salt]

soluble in H2O [2]: No
Structure (SMILES): CCc1ccc(CCOc2ccc(CC3SC(=O)NC3=O)cc2)nc1 (stereo not shown) [Hydrobromide]

solubility in water [2]: so low
Structure (SMILES): CCc1ccc(CCOc2ccc(CC3SC(=O)NC3=O)cc2)nc1 (stereo not shown) [pioglitazone base, 5-[[4-[2-(5-ethyl-2-pyridinyl)-ethoxy]phenyl]methyl]-2,4-thiazolidinedione, reference compound]

— patent US7230016B2, “Pioglitazone salts, such as pioglitazone sulfate, and pharmaceutical compositions and processes using the same” (priority 2003, dated 2007)
